{"source": "paper PMC3799725", "about": "“Detection of Active Matriptase Using a Biotinylated Chloromethyl Ketone Peptide” (PLoS ONE, 2013)", "key": {"matriptase-HAI-1 complex": {"system": "matriptase-HAI-1 complex", "assay": "Reaction with / effect on matriptase-HAI-1 complex in Caco-2 cells (pH 6.0-induced)"}, "matriptase SPD": {"system": "matriptase SPD", "assay": "Chromogenic assay: inhibition of matriptase SPD cleavage of S2288", "conditions": "representative of 3 independent experiments"}, "[1]": {"system": "murine matriptase (primary keratinocytes)", "conditions": "representative of 2 independent experiments; for labeling of matriptase in matriptase-deficient (KO) murine keratinocytes: lysates or pull downs (figure 6 lanes 4-6 and 10-12)"}}, "note": "Where no end group is shown, it is not given here. The star is where a group is joined. Biotin = O=C1N[C@H]2[C@H](CS[C@H]2CCCCC(=O)*)N1"}
{"molecule": "biotin-Arg-Gln-Arg-Arg-chloromethyl ketone", "values": [{"measurement": "labeling of matriptase after pH 6.0 pre-treatment (matriptase-HAI-1 complex formed)", "setting": "matriptase-HAI-1 complex; 50 µM, 30 min at 37°C at pH 7.4 after 30 min pre-treatment at pH 6.0 (figure 4 lane 9)", "result": "but not when the cells had been exposed to pH 6.0 for 30 min"}, {"measurement": "labeling of matriptase-HAI-1 complex", "setting": "matriptase-HAI-1 complex; Caco-2, 50 µM, 30 min at 37°C, conclusion from pH 6.0 pre-treatment", "result": "matriptase-HAI-1 complex is not labeled"}, {"measurement": "dissociation of matriptase-HAI-1 complex", "setting": "matriptase-HAI-1 complex; under the conditions used in the study", "result": "not able to dissociate the matriptase-HAI-1 complex"}, {"measurement": "inhibition of peptidolytic activity of matriptase SPD after pre-incubation of inhibitor", "setting": "matriptase SPD; 5 nM inhibitor pre-incubated 60 min at 37°C, 0.2 nM SPD, Hepes pH 7.4, S2288 300 µM, 405 nm", "result": "fully inhibiting the peptidolytic activity"}, {"measurement": "inhibition of peptidolytic activity of matriptase SPD", "setting": "matriptase SPD; 5 nM inhibitor, no pre-incubation (0 min), 0.2 nM SPD, Hepes pH 7.4, 10 min at 37°C, S2288 300 µM, 405 nm", "result": "fully inhibiting the peptidolytic activity"}, {"measurement": "inhibition of matriptase SPD after pre-incubation of inhibitor", "setting": "matriptase SPD; 50 µM inhibitor pre-incubated in aqueous solution 180 min at 37°C, 0.2 nM SPD, Hepes pH 7.4, 10 min at 37°C, S2288 300 µM, 405 nm", "result": "still sufficient to efficiently inhibit the activity"}, {"measurement": "inhibition of matriptase SPD cleavage of chromogenic substrate at pH 6.0", "setting": "matriptase SPD; 50 µM inhibitor, 20 mM citric acid pH 6.0, 140 mM NaCl, 0.1% BSA, 10 min at 37°C, S2288 300 µM", "result": "no cleavage of the substrate was observed"}, {"measurement": "labeling of matriptase in matriptase-deficient (KO) murine keratinocytes", "setting": "[1]", "result": "No matriptase could be detected in lysates or pull downs"}]}
{"molecule": "Biotin-RQRR [biotin-RQRR]", "values": [{"measurement": "labeling of matriptase on WT murine keratinocytes by control peptide", "setting": "[1]; 50 µM control peptide, WT keratinocytes (figure 6 lane 3)", "result": "No matriptase was detected"}, {"measurement": "labeling of matriptase in matriptase-deficient (KO) murine keratinocytes", "setting": "[1]", "result": "No matriptase could be detected in lysates or pull downs"}]}
{"molecule": "O=C(CCCC[C@@H]1SC[C@@H]2NC(=O)N[C@@H]21)NCCSSCCC(=O)ON1C(=O)CC(S(=O)(=O)[O-])C1=O.[Na+]", "note": "(some centres unmarked) [S-NHS-SS-biotin]", "values": [{"measurement": "labeling of matriptase in matriptase-deficient (KO) murine keratinocytes", "setting": "[1]", "result": "No matriptase could be detected in lysates or pull downs"}]}
